For series [1], the system named is endometrium of normal women. As to conditions: reduction in glandular density, increase in vacuolated cells; cited from earlier work.
The subject of series [2] is ovulatory women with unexplained infertility and anovulatory women with PCOS. Briefly: letrozole in conjunction with FSH for controlled ovarian super ovulation. It counts as in vivo, human.
Another series concerns ovulatory women. As to conditions: ovulatory group, one patient; cited from earlier work.
The subject of a further series is women with PCOS. Conditions: PCOS group, cited from earlier work.
The test system of series [3] is low responders during ovarian stimulation. The series is described as follows: letrozole with FSH stimulation in low responders. It counts as in vivo, human.
Series [4] has as its system infertile patients (PCOS, unexplained infertility).
Text: HCG 10,000 IU was given to trigger ovulation. Follicular development was monitored by transvaginal ultrasound and hormonal assays of estrogen and LH.
For series [5] the following is noted: in vivo; cited from earlier work.

Counter-ions that a name gives are not always drawn. Like-named read-outs stand apart in the source and are kept apart here.

As for `CCN(CC)CCOc1ccc(C(=C(Cl)c2ccccc2)c2ccccc2)cc1` [CC, clomiphene citrate], the “effect on the endometrium” value in series [1] is “deleterious effect on the endometrium”.
`N#Cc1ccc(C(c2ccc(C#N)cc2)n2cncn2)cc1` [letrozole]: the “FSH dose required for achievement of adequate ovarian super ovulation” value in series [2] is listed as “significantly lower”. Also, the pregnancy in the series on ovulatory women is reported as 10%. Moreover, the pregnancy with women with PCOS (3 patients) is reported as 25%. The ovulation in the series with women with PCOS (9 of 12 cycles) is listed as 75%. For the same molecule, in series [3], the “ovarian response to FSH stimulation” value is “improvement”. For the same molecule, in series [4] (Letrozole 5 days cycle), the “Endometrial thickness on hCG day” value is on record as 0.9 (0.2) cm, the “Estradiol on hCG day” value was 919 (782) pmol/L, the Estradiol/mature follicle is reported as 462 (257) pmol/L and the “Follicles >1.5 cm” value is on record as 1.9 (0.2). Also, the LH in series [4] (Letrozole 5 days cycle) was 18.2 (16.2) IU/L. For the same molecule, in series [4] (Letrozole single-dose cycles), the “Endometrial thickness on hCG day” value was 0.9 (0.11) cm, the “Estradiol on hCG day” value is on record as 831 (359) pmol/L, the Estradiol/mature follicle is 390 (74) pmol/L and the “Follicles >1.5 cm” value was 2.29 (1.3). Also, in series [4] (Letrozole single-dose cycles), the LH is 19.1 (12.7) IU/L. Besides, in series [4] (single 20 mg dose on day 3, out of the 9 single-dose treatment cycles), the ovulation was 8 cycles. For the same molecule, in series [4] (single 20 mg dose on day 3, seven patients), the pregnancy achieved result is “one”. In addition, the “characteristics of the single dose treatment cycles versus the 5-day treatment cycles” value in series [4] (single 20 mg dose vs […] for 5 days) was “no significant difference”. Moreover, the half-life entry in series [5] is “around two”.

These data come from patent US8008333B2, “Single dose aromatase inhibitor for treating infertility” (Ares Trading S.A., priority 2001, dated 2011).
